Patent US20230233583A1, “USE OF PHYTOCANNABINOIDS FOR TREATING MULTIPLE MYELOMA” (priority 2020, published 2023)

Legend:
U266 = experiment: Invasion assay in co-culture of HuOB and U266; format: cell-based, human; conditions: 24 hours; for AVERAGE OF CELLS/square (MM cells that invaded the Matrigel): U266 + HuOB co-culture, CBG, CBC, CBN 12.5 μM, CBDV 6.25 μM or 25 μM and 12.5 μM, untreated U266 + HuOB 14.2 ± 0.9; for effect on MM cell invasion, in words: U266 in co-culture with HuOB
Description: (§1) Invasion assay: HuOB cells (1.5×10^4) were plated on the surface of Matrigel in a BioCoat™ Matrigel® Invasion Chamber, 8.0 μm PET Membrane (Coming®, cod. 354480) and incubated for two days. After, U266 and RPMI (2.5×10^4) were pre-stained with Calcein (1 μM) for two hours, then treated with CBG (12.5 μM), CBC (12.5 μM), CBN (12.5 μM) and CBDV (6.25 μM) and added in the chambers. MM cells with HuOB, untreated, were used as invasion positive control, MM cells without HuOB cells were used as negative control. After 24 hours, the number of MM cells that invaded the Matrigel were analysed via fluorescent microscope. Eight 10× sections images were counted for each chamber.
(§2) Invasion assay in co-culture of HuOB and MM cell lines: This study evaluated the effect of phytocannabinoids in reducing the invasion of MM cell lines toward HuOB. HuOB were plated on the surface of Matrigel in the BioCoat™ Matrigel® Invasion Chamber, 8.0 μm PET Membrane (Corning®, cod. 354480) and incubated for two days. After, U266 or RPMI were pre-stained with Calcein (10 μM) for two hours, then treated with CBG (25 μM), CBC (25 μM), CBN (25 μM) and CBDV (12.5 μM) and added in the chambers. MM cells with HuOB, untreated, were used as an invasion positive control, MM cells without HuOB cells were used as a negative control. After 24 hours, the number of MM cells that invaded the Matrigel were analysed via fluorescent microscope. Eight 10× sections images were counted for each chamber.

RPMI [1] = experiment: MTT cytotoxicity assay in RPMI MM cell line; conditions: for IC50: Homo sapiens, 72 h, read-out: IC50 (μM) ± S.D.; for % VIABILITY ± S.D.: RPMI, daily, 72 hours, vs vehicle
Description: MTT cytotoxicity assay: MM cell lines (4×10^4 cells/ml) were seeded in 96-well plates, in a final volume of 100 μl/well. After 24 hours, CBG, CBC, CBN, CBDV alone and in combination or vehicle were added at different concentrations, for 72 hours. At least six replicates were used for each treatment. At the indicated time point, cell viability was assessed by adding 0.8 mg/ml of 3-[4,5-dimethylthiazol-2-yl]-2,5 diphenyl tetrazolium bromide (MTT) (Sigma-Aldrich) to the media. After 3 hours, the plates were centrifuged, the supernatant was removed, and the pellet was solubilized with 100 μl/well dimethyl sulfoxide (DMSO). The absorbance of the samples against a background control (medium alone) was measured at 570 nm using an ELISA reader microliter plate (BioTek™ Instruments, Winooski, Vt., USA).
Cells were treated with different doses of CBG, CBC, CBN and CBDV (up to 100 μM) and percentage of cell viability was evaluated by the MTT assay.
The cannabinoids were administered daily for 72 hours, as in previous experiments at the desired doses. Each combination was evaluated in six wells and in two separate experiments. MTT assay was used to analyze the cell cytotoxicity. The values in the tables are represented as % of cell viability compared to vehicle-treated cells.

RPMI [2] = experiment: Invasion assay in co-culture of HuOB and RPMI; format: cell-based, human; conditions: for effect on MM cell invasion, in words: RPMI in co-culture with HuOB, 24 hours
Description: as §1, §2

[3] = test system: MM cell lines SKO, U266 and RPMI; experiment: Alkaline Comet assay; format: cell-based, human; conditions: 48 hrs, CBG, CBN, CBDV 25 μM, CBC 75 μM
Description: Damage to cellular DNA of the cell lines SKO (upper images in each of FIGS. 21-24), U266 (middle images in each of FIGS. 21-24) and RPMI (lower images in each of FIGS. 21-24) due to exposure to CBG (25 μM; FIG. 21), CBC (75 μM; FIG. 22), CBN (25 μM; FIG. 23) and CBDV (25 μM; FIG. 24) were assessed using the Comet assay.
Alkaline Comet Assay: U266, SKO and RPMI myeloma cell lines were plated in 6-well plates (4×10^4 cell/well) one day before treatment exposure. Semi-confluent cultures were exposed for 48 hrs with 25 μM of CBG, CBN or CBDV or 75 μM of CBC. Controls, treated with vehicle, were included in all series. The Comet assay was performed under alkaline conditions following the ABCAM™ protocol. Briefly, after exposure to the phytocannabinoid, the cells were incubated for 48 hrs in Roswell Park Memorial Institute (RPMI) medium. Then the cells were resuspended in 1×PBS and added to 75 μL of molten (37° C.) 0.5% low-melting-point agarose gel to achieve a cell concentration of 1×10^5 cells/mL. The agarose was pipetted onto the Comet slides. Slides were stored in the dark at 4° C. for 10 min before adding pre-chilled lysis buffer for 45 min. The slides were immersed in freshly prepared alkaline solution (0.25 M NaOH containing […] EDTA, pH 12.6) for 30 min at room temperature. Slides were then removed and washed twice with alkaline solution for 5 min. Gel electrophoresis was performed at 1 V/cm for 30 min (running amperage 3-5 mA with the distance between the two electrodes of 25 cm). The Comet slides were washed with 70% ethanol for 5 min and air-dried for one hour at room temperature. 100 μL of diluted SYBR™ Green solution was placed onto each dried agarose circle. The slides were then read with a fluorescence microscope (LEIKA).
Phytocannabinoids induce necrotic cell death in MM cell lines: To evaluate the cytotoxic mechanism induced by the phytocannabinoids, MM cell lines were treated daily with a cytotoxic dose for each phytocannabinoid (CBG: 25 μM; CBC 75 μM; CBN 25 μM; CBDV 25 μM) for 48 hours and then Annexin-V/PI cell positivity was evaluated by FACS analysis. The results evidenced that all of the phytocannabinoids induced necrotic cell death but had different efficacies (FIGS. 5-16). To confirm the necrotic cell death mechanism, MM cell lines were treated as above and DNA damage was evaluated by H2AX (a marker to examine the DNA damage produced and the subsequent repair of the DNA lesion) Western blot analysis and Comet assay (permits the analysis of DNA damage in single cell preparations). The result confirmed the DNA damage induced by the phytocannabinoid analysed. […]

[4] = single phytocannabinoid 12.5 μM

Row | SMILES | AVERAGE OF CELLS/square (MM cells that invaded the Matrigel) (U266) | effect on MM cell invasion, in words (U266) | IC50 (RPMI [1]) | % VIABILITY ± S.D. (RPMI [1]; [4]) | % VIABILITY ± S.D. (RPMI [1]; single phytocannabinoid 25 μM) | AVERAGE OF CELLS/square (MM cells that invaded the Matrigel) (RPMI [2]) | effect on MM cell invasion, in words (RPMI [2]) | DNA damage by Comet assay, in words [3]
1 | CCCCCc1cc(O)c(C/C=C(\C)CCC=C(C)C)c(O)c1 [CBG, 2-[(2E)-3,7-dimethylocta-2,6-dienyl]-5-pentylbenzene-1,3-diol] | 3.2 ± 0.2 CELLS/square | higher activity | 31.4 ± 1.9 µM | 99.3 ± 8.2% | 69.1 ± 5.5% | 1.6 ± 0.2 CELLS/square | higher activity | induce DNA damage
2 | C=C(C)[C@@H]1CCC(C)=C[C@H]1c1c(O)cc(CCC)cc1O [CBDV, 2-[(1R,6R)-3-methyl-6-prop-1-en-2-ylcyclohex-2-en-1-yl]-5-propylbenzene-1,3-diol] | 11.2 ± 1.1 CELLS/square | – | 21.7 ± 1.1 µM | 70.2 ± 5.3% | 40.2 ± 2.4% | 35.6 ± 2.4 CELLS/square | – | induce DNA damage
3 | CCCCCc1cc(O)c2c(c1)OC(C)(CCC=C(C)C)C=C2 (stereo not shown) [CBC, 2-methyl-2-(4-methylpent-3-enyl)-7-pentylchromen-5-ol] | 12.5 ± 1.1 CELLS/square | – | 49.6 ± 2.1 µM | 104.9 ± 3.6% | 98.3 ± 5.1% | 29.3 ± 1.7 CELLS/square | – | induce DNA damage
4 | CCCCCc1cc(O)c2c(c1)OC(C)(C)c1ccc(C)cc1-2 [CBN, 6,6,9-trimethyl-3-pentylbenzo[c]chromen-1-ol] | 7.0 ± 0.2 CELLS/square | higher activity | 23.6 ± 0.9 µM | 102.6 ± 7.4% | 81.1 ± 7.7% | 3.3 ± 0.1 CELLS/square | higher activity | induce DNA damage
